US20250025048A1, “Liver Viscoelastic Changes and Biomarkers for Cancer Invasion” (The Board of Trustees of the Leland Stanford Junior …, priority 2021, published 2025)

Key:
[1] = test system: livers from HiAD-fed mice; test: Rheometry of livers (dynamic time sweep and stress relaxation test); format: in vivo; details: 600 s; for storage modulus (stiffness, G'): 2% constant strain, 1 radian/s, FIG. 3B; for faster relaxation times (high viscoelasticity) of HiAD livers, stress relaxation test: initial 10% strain, FIGS. 3C-3D
Method: FIGS. 3A-3D. […] The plate was lowered to touch the sample and 100˜300 Pa of initial force was applied. Dynamic time sweep test (2% constant strain, oscillation frequency 1 radian/s, measurements taken for 600 s) was done first to collect the shear storage modulus (stiffness, G′) and loss modulus (G″) (FIG. 3A). […] Stress relaxation test was performed for 600 s with an initial 10% strain. […] Stress was normalized by the initial stress (FIG. 3C). Quantification of timescale at which the stress is relaxed to half its original value (τ1/2), from the tests in FIG. 3C (FIG. 3D). (N=2-4, Data are represented as mean±SEM; one way ANOVA followed by post-hoc Tukey test *p<0.05, **p<0.01, ***p<0.001).
The plate was lowered to touch the sample and 100˜300 Pa of initial force was applied. Dynamic time sweep test (2% constant strain, oscillation frequency 1 radian/s, measurements taken for 600 s) was done first to collect the shear storage modulus (stiffness, G′) and loss modulus (G″) (FIG. 3A). […] A stress relaxation test was performed for 600 s with an initial 10% strain. […] Stress was normalized by the initial stress (FIG. 3C). Quantification of timescale at which the stress is relaxed to half its original value (τ1/2), from the tests in FIG. 3C (FIG. 3D). (N=2-4, Data are represented as mean±SEM; one way ANOVA followed by post-hoc Tukey test *p<0.05, **p<0.01, ***p<0.001).

[2] = test system: livers from HiAD-fed mice; test: Atomic force microscopy (AFM) indentation of livers, hysteresis between approach and retraction curves; format: in vivo; details: 60 mg/kg daily, i.p., FIG. 1B
Text: FIGS. 1A-1B. ECM viscoelasticity increases in an advanced glycation end product (AGE) and hepatocyte RAGE-dependent manner. Schematic presentation of the methods used to assess mechanical responses to indentation by an atomic force microscope (AFM) probe. Force-distance curve is generated when the probe indents the sample until a defined force is reached (blue, approach curve) and the cantilever is retracted (red, retraction curve). The hysteresis between the approach and retraction curves indicates sample viscosity (FIG. 1A).
As shown in FIGS. 1A-1B, extracellular matrix (ECM) viscoelasticity increases in an AGE and hepatocyte RAGE-dependent manner. Mechanical responses to indentation were assessed by an atomic force microscope (AFM) probe. A force-distance curve is generated when the probe indents the sample until a defined force is reached and the cantilever is retracted. The hysteresis between the approach and retraction curves indicates sample viscosity (FIG. 1A).

Structure (SMILES)	storage modulus (stiffness, G') [1]	faster relaxation times (high viscoelasticity) of HiAD livers, stress relaxation test [1]	hysteresis area between approach and retraction force curves (sample viscosity) [2]
Cc1sc[n+](CC(=O)c2ccccc2)c1C.[Cl-] [alagebrium, 3-phenacyl-4,5-dimethylthiazolium chloride]	did not change	reversed	–
Cc1ncc(CO)c(CN)c1O [PM, pyridoxamine]	did not change	reversed	reduced
